This test has as its target T1, L-Selectin (Homo sapiens, UniProt P14151).
T1 construct: purchased Research and Development Systems 728-LS
T1 sequence (P14151 39-332 limits assumed): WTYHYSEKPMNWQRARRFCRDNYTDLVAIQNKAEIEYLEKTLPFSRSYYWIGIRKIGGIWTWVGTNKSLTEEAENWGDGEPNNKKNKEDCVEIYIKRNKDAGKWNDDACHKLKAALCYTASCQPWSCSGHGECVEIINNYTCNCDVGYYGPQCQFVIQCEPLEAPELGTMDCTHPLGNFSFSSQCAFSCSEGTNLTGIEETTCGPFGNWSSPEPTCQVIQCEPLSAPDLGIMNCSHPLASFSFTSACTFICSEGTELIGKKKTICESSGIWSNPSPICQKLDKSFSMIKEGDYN
The experiment in a line: ELISA: inhibition of L-selectin/IgG binding to immobilized heparin (Heparin-BSA). The note with it: L-Selectin binding to heparin. The protocol: The inhibitory effect of the compounds of the present invention can be evaluated by several methods in vitro. One assay for measuring GAG-ECAM binding, exemplified herein below, detects the binding of L selectin/IgG to immobilized heparin. Another assay utilizes immobilized L-selectin, or L-selectin fused to protein domains other than IgG. The amount of bound L-selectin is determined by an ELISA assay using, for example, a monoclonal antibody raised against L-selectin, which is conjugated to horseradish peroxidase. […] The Dregg-55 antibody was also shown to inhibit L-selectin-dependent adhesion in vitro, neutrophil accumulation in vitro and inflammation in vivo (Co M. S. et al, Immunotechnology 493: 253-266, 1999).
An in vitro assay was used to assess the ability of test compounds according to formula I to inhibit the interactions of L-selectin with HS-GAGs. The assay was suitable for determining the concentration required for 50% inhibition (IC-50) for each specific compound. In the assay, the GAG used was heparin. Thus, porcine intestinal mucosa heparin conjugated to Bovine Serum Albumin (Heparin-BSA; Sigma Cat. No. H0403) at […] in Phosphate Buffered Saline (PBS; pH 6.5) was added to a 96 well polystyrene ELISA plate (NUNC Cat. No. 442404; 0.1 ml per well) and incubated Over Night (ON) at 4° C. Following the incubation, the plate was washed thoroughly, by immersion, with de-ionized water and PBS (pH 6.5). The ELISA plate was then blocked with BSA (ICN Cat. No.160069, 3%, 200 μl per well) for 1 hour at Room Temperature (RT). Following blocking, the plate was washed with de-ionized water, and then with PBS (pH 6.5) containing Tween 20 (Sigma Cat. No. P-1379, 0.05%). Compounds were synthesized or purchased from ChemDiv Labs (San Diego, Calif.), dissolved in DMSO, diluted in PBS and added to the wells at various concentrations in the range of 0.01 to 300 μM. Recombinant Human L-Selectin/IgG (Research and Development Systems Cat. No.728-LS) dissolved in PBS supplemented with BSA (0.1%) and calcium chloride (1 mM) was added to the ELISA plate (100 μl per well) and incubated for 60 minutes at RT with shaking. Following incubation, the plate was washed with de-ionized water and three times with PBS (pH 6.5) containing Tween 20. Anti-Human IgG Peroxidase Conjugate (1:5000; Sigma Product No. A8667) diluted in PBS supplemented with BSA (0.1%) and calcium chloride (1 mM) was added to the ELISA plate (100 μl per well) and incubated for 30 minutes at RT with shaking. The plate was then washed with de-ionized water and three times with PBS (pH 6.5) containing Tween 20. The peroxidase substrate cromogen, TMB (Dako Cat. No. S1599) was added (100 μl per well) to the ELISA plate and incubated at room temperature. After 15 minutes ELISA Stop Solution (hydrochloric acid 1N, sulfuric acid 3N) was added (200 μl per well) to stop the peroxidase catalyzed colorimetric reaction. The Optical Density (OD) of the samples was measured at 450 nm using an ELISA plate reader (Dynatech MR5000). Data were analyzed with Graphpad Prism software and IC-50 values were established. The P-selectin assay was carried out in a similar fashion, except that Recombinant Human P-Selectin/IgG (Research and Development Systems Cat.No.137-PS) was used.

Regarding `CCN(CC)S(=O)(=O)c1ccc(C(=O)Nc2sc3c(c2-c2nc4ccccc4s2)CCN(C)C3)cc1` [Compound 2], at 50 µM the inhibition was 60%.

Consider `CCN(CC)S(=O)(=O)c1ccc(C(=O)Nc2sc3c(c2-c2nc4ccccc4s2)CCN(C(C)C)C3)cc1` [Compound 3], for which the IC50 was 10 µM.

`COCCN(CCOC)S(=O)(=O)c1ccc(C(=O)Nc2sc3c(c2-c2nc4ccccc4s2)CCN(C)C3)cc1` [Compound 4] yielded an inhibition at 50 µM of 43%.

In turn, `CN1CCc2c(sc(NC(=O)c3ccc(S(=O)(=O)N(C)c4ccccc4)cc3)c2-c2nc3ccccc3s2)C1` [Compound 6] came in with an inhibition at 50 µM of 44%.

On to `CCN1CCc2c(sc(NC(=O)c3ccc(S(=O)(=O)N4CCCCCC4)cc3)c2-c2nc3ccccc3s2)C1` [Compound 8], for which at 50 µM the inhibition was 46%.

The compound `CN1CCc2c(sc(NC(=O)c3ccc(S(=O)(=O)N4CCOCC4)cc3)c2-c2nc3ccccc3s2)C1` [Compound 9] had an inhibition at 50 µM of 52%.

`CC(C)N1CCc2c(sc(NC(=O)c3ccc(S(=O)(=O)N4CCOCC4)cc3)c2-c2nc3ccccc3s2)C1` [Compound 10] displayed a concentration for half-maximal inhibition (IC50) of 25 µM.

`CCCCN(CC)S(=O)(=O)c1ccc(C(=O)Nc2sc3c(c2C(N)=O)CCN(C(C)C)C3)cc1` [Compound 12] registered an inhibition at 50 µM of 55%.

`CC(C)N1CCc2c(sc(NC(=O)c3ccc(S(=O)(=O)N(C)c4ccccc4)cc3)c2C(N)=O)C1` [Compound 13] registered an inhibition at 50 µM of 68%.

In the case of `CC1CC(C)CN(S(=O)(=O)c2ccc(C(=O)Nc3sc4c(c3C(N)=O)CCN(C(C)C)C4)cc2)C1` (stereo not shown) [Compound 14], testing at 50 µM gave an inhibition of 35%.

As for `CCCCN(C)S(=O)(=O)c1ccc(C(=O)Nc2sc3c(c2C(=O)OCC)CCN(C(C)C)C3)cc1` [Compound 15], testing at 50 µM gave an inhibition of 40%.

Compound `CCOC(=O)c1c(NC(=O)c2ccc(S(=O)(=O)N3CCCc4ccccc43)cc2)sc2c1CCN(C(C)C)C2` [Compound 16] showed a 50% inhibitory concentration (IC50) of 11 µM.

For the compound `CCOC(=O)c1c(NC(=O)c2ccc(S(=O)(=O)N3CCN(C(=O)OCC)CC3)cc2)sc2c1CCN(C(C)C)C2` [Compound 17], the inhibition at 50 µM was 21%.

In the case of `CCOC(=O)c1c(NC(=O)c2ccc(S(=O)(=O)N3CCCCCC3)cc2)sc2c1CC(C)(C)NC2(C)C` [Compound 18], the half-inhibitory concentration (IC50) was determined as 11 µM.

Compound `C=CCN(CC=C)S(=O)(=O)c1ccc(C(=O)Nc2sc3c(c2C(=O)OC)CC(C)(C)NC3(C)C)cc1` [Compound 19] returned an IC50 of 43 µM.

In the case of `CCOC(=O)c1c(NC(=O)c2ccc(S(=O)(=O)N(CC)CC)cc2)sc2c1CC(C)(C)NC2(C)C` [Compound 20], the half-maximal inhibitory concentration (IC50) was found to be 26 µM.

Regarding `CN(C1CCCCC1)S(=O)(=O)c1ccc(C(=O)Nc2sc3c(c2C(N)=O)CC(C)(C)NC3(C)C)cc1` [Compound 21], the IC50 was determined as 36 µM.

`CCN(CC)S(=O)(=O)c1ccc(C(=O)Nc2sc3c(c2C(N)=O)CC(C)(C)NC3(C)C)cc1` [Compound 22]: at 50 µM the inhibition was 35%.

With `CCCCN(C)S(=O)(=O)c1ccc(C(=O)Nc2sc3c(c2C(N)=O)CC(C)(C)NC3(C)C)cc1` [Compound 23], the inhibition at 50 µM was found to be 39%.

With `CCOC(=O)N1CCN(S(=O)(=O)c2ccc(C(=O)Nc3sc4c(c3C(N)=O)CC(C)(C)NC4(C)C)cc2)CC1` [Compound 24], the inhibition at 50 µM was 29%.

In turn, `COCCN(CCOC)S(=O)(=O)c1ccc(C(=O)Nc2sc3c(c2C(N)=O)CC(C)(C)NC3(C)C)cc1` [Compound 26] displayed an inhibition at 50 µM of 23%.

The compound `CCN1CCc2c(sc(NC(=O)c3ccc(S(=O)(=O)N(C)c4ccccc4)cc3)c2C(=O)NC)C1` [Compound 27] came in with an IC50 of 9 µM.

`CCN1CCc2c(sc(NC(=O)c3ccc(S(=O)(=O)N(CC)Cc4ccccc4)cc3)c2C(N)=O)C1` [Compound 28, 2-[[4-[[ethyl(phenylmethyl)amino]sulfonyl]benzoyl]amino]-6-ethyl-4,5,6,7-tetrahydrothieno[2,3-c]pyridine-3-carboxamide]: the inhibition at 50 µM amounted to 63%.

Consider `CCN1CCc2c(sc(NC(=O)c3ccc(S(=O)(=O)N4CCN(C)CC4)cc3)c2C(N)=O)C1` [Compound 29, 2-[[4-[(4-methyl-1-piperazinyl)sulfonyl]benzoyl]amino]-6-ethyl-4,5,6,7-tetrahydrothieno[2,3-c]pyridine-3-carboxamide], for which at 50 µM the inhibition was 30%.

In the case of `CCCN(CCC)S(=O)(=O)c1ccc(C(=O)Nc2sc3c(c2-c2nc4ccccc4s2)CCN(C)C3)cc1` [Compound 30], the inhibition at 50 µM worked out at 21%.

Consider `CCCCN(CCCC)S(=O)(=O)c1ccc(C(=O)Nc2sc3c(c2-c2nc4ccccc4s2)CCN(C)C3)cc1` [Compound 31], for which testing at 50 µM gave an inhibition of 27%.

As for `CCCCN(C)S(=O)(=O)c1ccc(C(=O)Nc2sc3c(c2-c2nc4ccccc4s2)CCN(C)C3)cc1` [Compound 32], 50 µM produced 26% inhibition.

Take `CCCCN(CC)S(=O)(=O)c1ccc(C(=O)Nc2sc3c(c2-c2nc4ccccc4s2)CCN(C)C3)cc1` [Compound 33]: 50 µM produced 21% inhibition.

Consider `C=CCN(CC=C)S(=O)(=O)c1ccc(C(=O)Nc2sc3c(c2-c2nc4ccccc4s2)CCN(C)C3)cc1` [Compound 34], for which at 50 µM the inhibition was 25%.

Regarding `CN1CCc2c(sc(NC(=O)c3ccc(S(=O)(=O)N4CCCC4)cc3)c2-c2nc3ccccc3s2)C1` [Compound 35], the inhibition at 50 µM came to 24%.

`CN1CCc2c(sc(NC(=O)c3ccc(S(=O)(=O)N4CCCCC4)cc3)c2-c2nc3ccccc3s2)C1` [Compound 36]: the inhibition at 50 µM came out at 26%.

`CC1CCCN(S(=O)(=O)c2ccc(C(=O)Nc3sc4c(c3-c3nc5ccccc5s3)CCN(C)C4)cc2)C1` (stereo not shown) [Compound 37] registered an inhibition at 50 µM of 23%.

`CC1CCN(S(=O)(=O)c2ccc(C(=O)Nc3sc4c(c3-c3nc5ccccc5s3)CCN(C)C4)cc2)CC1` [Compound 38] came in with an inhibition at 50 µM of 33%.

Turning to `CC1CC(C)CN(S(=O)(=O)c2ccc(C(=O)Nc3sc4c(c3-c3nc5ccccc5s3)CCN(C)C4)cc2)C1` (stereo not shown) [Compound 39], at 50 µM the inhibition was 24%.

`CCCN(CCC)S(=O)(=O)c1ccc(C(=O)Nc2sc3c(c2-c2nc4ccccc4s2)CCN(CC)C3)cc1` [Compound 40]: the inhibition at 50 µM is 25%.

In turn, `C=CCN(CC=C)S(=O)(=O)c1ccc(C(=O)Nc2sc3c(c2-c2nc4ccccc4s2)CCN(CC)C3)cc1` [Compound 41] had an inhibition at 50 µM of 25%.

`CCCCN(CC)S(=O)(=O)c1ccc(C(=O)Nc2sc3c(c2-c2nc4ccccc4s2)CCN(C(C)C)C3)cc1` [Compound 42] displayed an inhibition at 50 µM of 27%.

Compound `C=CCN(CC=C)S(=O)(=O)c1ccc(C(=O)Nc2sc3c(c2-c2nc4ccccc4s2)CCN(C(C)C)C3)cc1` [Compound 43] registered an inhibition at 50 µM of 17%.

The compound `CC(C)N1CCc2c(sc(NC(=O)c3ccc(S(=O)(=O)N4CCCCC4)cc3)c2-c2nc3ccccc3s2)C1` [Compound 44] gave an inhibition at 50 µM of 29%.

The compound `CC(C)N1CCc2c(sc(NC(=O)c3ccc(S(=O)(=O)N4CCCCC4C)cc3)c2-c2nc3ccccc3s2)C1` (stereo not shown) [Compound 45] showed an inhibition at 50 µM of 24%.

For the origin of these results see patent publication US7365080B2, “Pharmaceutical compositions comprising thieno[2,3-c]pyridine derivatives and use thereof” (Rimonyx Pharmaceuticals Ltd., priority 2003, dated 2008).
